Source: ChEMBL document CHEMBL4371007, “Biased Ligands of G Protein-Coupled Receptors (GPCRs): Structure-Functional Selectivity Relationships (SFSRs) and Therapeutic Potential” (J Med Chem, 2018)

Legend:
Adenosine receptor A3 [1] = target: T1, Adenosine receptor A3 (Homo sapiens, UniProt P0DMS8); assay: Agonist activity at human adenosine A3 receptor expressed in FlpIn-CHO cells assessed as increase in ERK1/2 phosphorylation after 5 mins by alphascreen assay; type: cell-based
T1 sequence (P0DMS8 whole entry): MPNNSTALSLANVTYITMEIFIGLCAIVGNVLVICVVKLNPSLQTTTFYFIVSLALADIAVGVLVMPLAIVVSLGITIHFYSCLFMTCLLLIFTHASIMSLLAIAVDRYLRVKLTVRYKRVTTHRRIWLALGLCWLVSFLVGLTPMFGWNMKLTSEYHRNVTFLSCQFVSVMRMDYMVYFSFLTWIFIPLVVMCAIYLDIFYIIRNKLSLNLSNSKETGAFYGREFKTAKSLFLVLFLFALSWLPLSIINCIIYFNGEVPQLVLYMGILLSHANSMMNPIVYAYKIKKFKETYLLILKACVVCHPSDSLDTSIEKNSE

[2] = target: T2, Adenosine receptor A3 (Homo sapiens) (UniProt P0DMS8); assay: Agonist activity at human adenosine A3 receptor expressed in FlpIn-CHO cells assessed as increase in ERK1/2 phosphorylation after 5 mins by alphascreen assay relative to control; type: cell-based
T2 sequence (whole entry): T1 sequence (P0DMS8 whole entry)

Adenosine receptor A3 [3] = target: T1, Adenosine receptor A3; assay: Agonist activity at human adenosine A3 receptor expressed in FlpIn-CHO cells assessed as inhibition of forskolin-mediated cAMP accumulation preincubated for 10 mins followed by forskolin addition measured after 30 mins by alphascreen assay; type: functional, cell-based
[4] = target: T2, Adenosine receptor A3 (Homo sapiens); assay: Agonist activity at human adenosine A3 receptor expressed in FlpIn-CHO cells assessed as inhibition of forskolin-mediated cAMP accumulation preincubated for 10 mins followed by forskolin addition measured after 30 mins by alphascreen assay relative to control; type: functional, cell-based
[5] = target: T2, Adenosine receptor A3 (Homo sapiens); assay: Ratio of pEC50 EC50 for agonist activity at human adenosine A3 receptor expressed in FlpIn-CHO cells assessed as inhibition of forskolin-mediated cAMP accumulation to pEC50 for agonist activity at human adenosine A3 receptor expressed in FlpIn-CHO cells assessed as increase in ERK1/2 phosphorylation; type: functional, cell-based
[6] = target: T2, Adenosine receptor A3 (Homo sapiens); assay: Agonist activity at adenosine A3 receptor (unknown origin) expressed in serum starved CHO cells assessed as increase in cell survival after 24 hrs by propidium iodide staining-based assay relative to control
[7] = target: T2, Adenosine receptor A3 (Homo sapiens); assay: Ratio of pEC50 for agonist activity at human adenosine A3 receptor expressed in FlpIn-CHO cells assessed as inhibition of forskolin-mediated cAMP accumulation to pEC50 for agonist activity at adenosine A3 receptor (unknown origin) expressed in serum starved CHO cells assessed as increase in cell survival after 24 hrs by propidium iodide staining-based assay; type: functional
Cannabinoid receptor 2 [8] = target: T3, Cannabinoid receptor 2 (Mus musculus, UniProt P47936); assay: Inverse agonist activity at mouse CB2 receptor expressed in HEK293 cells assessed as inhibition of forskolin-mediated cAMP accumulation after 5 mins by fluorescence assay; type: functional, cell-based
T3 sequence (P47936 whole entry): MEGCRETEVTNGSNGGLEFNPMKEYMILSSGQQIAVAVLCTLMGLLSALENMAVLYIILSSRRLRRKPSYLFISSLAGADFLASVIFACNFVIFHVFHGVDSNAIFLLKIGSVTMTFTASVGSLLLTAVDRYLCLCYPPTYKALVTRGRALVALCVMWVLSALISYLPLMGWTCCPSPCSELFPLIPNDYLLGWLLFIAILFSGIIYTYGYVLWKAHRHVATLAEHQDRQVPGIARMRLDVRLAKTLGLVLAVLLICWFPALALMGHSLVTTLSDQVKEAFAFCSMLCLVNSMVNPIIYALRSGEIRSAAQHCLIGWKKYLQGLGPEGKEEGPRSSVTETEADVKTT

[9] = target: Cannabinoid receptor 2 (Mus musculus) (UniProt P47936); assay: Inverse agonist activity at mouse CB2 receptor expressed in HEK293 cells assessed as inhibition of forskolin-mediated cAMP accumulation after 5 mins by fluorescence assay relative to control; type: functional, cell-based
Cannabinoid receptor 2 (Mus musculus), sequence (P47936 whole entry, the tested form may be a part): as the sequence (P47936 whole entry) above

Cannabinoid receptor 2 [10] = target: T3, Cannabinoid receptor 2; assay: Inverse agonist activity at C-terminally prolink-tagged mouse CB2 receptor expressed in CHOK1 cells harboring beta-galactosidase enzyme fused beta-arrestin assessed as increase in beta-arrestin recruitment after 90 mins by chemiluminescent assay; type: cell-based
[11] = target: Cannabinoid receptor 2 (Mus musculus) (UniProt P47936); assay: Inverse agonist activity at C-terminally prolink-tagged mouse CB2 receptor expressed in CHOK1 cells harboring beta-galactosidase enzyme fused beta-arrestin assessed as increase in beta-arrestin recruitment after 90 mins by chemiluminescent assay relative to control; type: cell-based
[12] = target: Cannabinoid receptor 2 (Mus musculus) (UniProt P47936); assay: Ratio of EC50 for C-terminally prolink-tagged mouse CB2 receptor expressed in CHOK1 cells harboring beta-galactosidase enzyme fused beta-arrestin assessed as increase in beta-arrestin recruitment to EC50 for mouse CB2 receptor expressed in HEK293 cells assessed as inhibition of forskolin-mediated cAMP accumulation; type: functional, cell-based
Histamine H4 receptor [13] = target: T4, Histamine H4 receptor (Homo sapiens, UniProt Q9H3N8); assay: Agonist activity at histamine H4 receptor (unknown origin) expressed in human U2OS cells increase in beta-arrestin2 recruitment after 2 hrs by luminescence assay; type: cell-based
T4 sequence (Q9H3N8 whole entry): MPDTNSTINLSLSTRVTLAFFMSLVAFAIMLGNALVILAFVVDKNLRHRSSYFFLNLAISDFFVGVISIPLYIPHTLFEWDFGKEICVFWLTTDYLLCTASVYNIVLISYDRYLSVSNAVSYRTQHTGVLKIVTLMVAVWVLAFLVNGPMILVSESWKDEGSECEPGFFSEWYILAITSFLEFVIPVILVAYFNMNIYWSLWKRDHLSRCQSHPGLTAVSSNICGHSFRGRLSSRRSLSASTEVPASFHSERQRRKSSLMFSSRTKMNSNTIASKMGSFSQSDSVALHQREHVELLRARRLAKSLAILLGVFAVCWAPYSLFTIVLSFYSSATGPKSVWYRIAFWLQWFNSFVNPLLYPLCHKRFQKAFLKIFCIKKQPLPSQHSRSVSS

Histamine H4 receptor [14] = target: T4, Histamine H4 receptor; assay: Agonist activity at histamine H4 receptor (unknown origin) expressed in human U2OS cells increase in beta-arrestin2 recruitment after 2 hrs by luminescence assay relative to control; type: cell-based
Histamine H4 receptor [15] = target: T4, Histamine H4 receptor; assay: Agonist activity at histamine H4 receptor (unknown origin) expressed in HEK293T cells harboring CRE-luciferase after 6 hrs by luciferase reporter gene assay; type: functional, cell-based
Histamine H4 receptor [16] = target: T4, Histamine H4 receptor; assay: Agonist activity at histamine H4 receptor (unknown origin) expressed in HEK293T cells harboring CRE-luciferase after 6 hrs by luciferase reporter gene assay relative to control; type: functional, cell-based

Compound	Emax [2] [%]	Emax [4] [%]	Emax [6] [%]	EC50 (Cannabinoid receptor 2 [8]) [µM]	Emax [9] [%]	Emax [11] [%]	Ratio EC50 [12]	EC50 (Histamine H4 receptor [13]) [µM]	Emax (Histamine H4 receptor [14]) [%]	further results
CNC(=O)[C@@]12C[C@@H]1[C@@H](n1cnc3c(NCc4cccc(Cl)c4)nc(C#Cc4cc5cccc6ccc7cccc4c7c65)nc31)[C@H](O)[C@@H]2O	112	78	80							EC50 (Adenosine receptor A3 [1]): 1 µM; EC50 (Adenosine receptor A3 [3]): 0.316 µM; Ratio EC50 [5]: 3; Ratio [7]: 43
CNC(=O)[C@H]1O[C@@H](n2cnc3c(NCc4cccc(I)c4)ncnc32)[C@H](O)[C@@H]1O	106	72	85							
CNC(=O)[C@@]12C[C@@H]1[C@@H](n1cnc3c(NCc4cccc(Cl)c4)nc(C#Cc4ccc(-c5ccccc5)cc4)nc31)[C@H](O)[C@@H]2O	95	59	85							EC50 (Adenosine receptor A3 [1]): 0.0251 µM; EC50 (Adenosine receptor A3 [3]): 0.00794 µM; Ratio EC50 [5]: 3.2; Ratio [7]: 224
CNC(=O)[C@@]12C[C@@H]1[C@@H](n1cnc3c(NCc4cccc(Cl)c4)nc(C#Cc4ccc(F)c(F)c4)nc31)[C@H](O)[C@@H]2O	106	89	81							
CN1CCCCC1Cn1cc(C(=O)C23CC4CC(CC(C4)C2)C3)c2ccccc21 (stereo not given)				0.015	24	52	0.079			EC50 (Cannabinoid receptor 2 [10]): 0.071 µM
CCCCCc1cc(O)c2c(c1)OC(C)(C)[C@@H]1CCC(C)=C[C@@H]21 [DRONABINOL]				0.0073	52	3	33.1			
CNC(=O)[C@@]12C[C@@H]1[C@@H](n1cnc3c(NCc4cccc(Cl)c4)nc(C#Cc4ccccc4)nc31)[C@H](O)[C@@H]2O	88	78	83							EC50 (Adenosine receptor A3 [1]): 0.000501 µM; EC50 (Adenosine receptor A3 [3]): 0.000794 µM; Ratio EC50 [5]: 2.1; Ratio [7]: 8.1
CN1CCN(c2nc3cc(Cl)c(Cl)cc3[nH]c2=O)CC1								0.0251	86	
CCCCCCC(C)(C)c1cc(OC)c([C@@H]2C=C(CO)[C@H]3C[C@@H]2C3(C)C)c(OC)c1				0.03	60	3	39.8			
c1nc(CCn2cc(CC3CCCCC3)nn2)c[nH]1								1	17	EC50 (Histamine H4 receptor [15]): 0.126 µM; Emax (Histamine H4 receptor [16]): 82%
CN1CCN(C(=O)c2cc3cc(Cl)cc([N+](=O)[O-])c3[nH]2)CC1								1	95	EC50 (Histamine H4 receptor [15]): 0.398 µM; Emax (Histamine H4 receptor [16]): 105%
CN1CCN(c2cc(NCc3ccccc3)nc(N)n2)CC1								0.0631	27	EC50 (Histamine H4 receptor [15]): 0.0126 µM; Emax (Histamine H4 receptor [16]): 79%
N=C(NCc1cccc(Cl)c1)SCCCc1c[nH]cn1								0.0398	37	EC50 (Histamine H4 receptor [15]): 0.00631 µM; Emax (Histamine H4 receptor [16]): 92%
CCCCCn1cc(C(=O)C2C(C)(C)C2(C)C)c2ccccc21					12	70	0.0015			EC50 (Cannabinoid receptor 2 [10]): 0.095 µM
COc1ccc(C(=O)c2c(C)n(CCN3CCOCC3)c3cc(I)ccc23)cc1				0.025	-19	43				EC50 (Cannabinoid receptor 2 [10]): 0.009 µM
CCCn1c(C)c(C(=O)c2cccc3ccccc23)c2ccccc21				0.03	23	28	28.1			EC50 (Cannabinoid receptor 2 [10]): 0.16 µM
Cc1c(C(=O)NN2CCCCC2)nn(-c2ccc(Cl)cc2Cl)c1-c1ccc(Cl)cc1					-11	-43				
CNC(=O)[C@@]12C[C@@H]1[C@@H](n1cnc3c(N(C)c4cccc(Cl)c4)nc(Cl)nc31)[C@H](O)[C@@H]2O	94	70	85							Ratio EC50 [5]: 1.4; Ratio [7]: 3.1
N=C(NCc1ccccc1Cl)SCCCc1c[nH]cn1								0.0158	31	
O=C(c1cn(CCCCCF)c2ccccc12)C12CC3CC(CC(C3)C1)C2				0.052	31	62	0.2			EC50 (Cannabinoid receptor 2 [10]): 0.0015 µM
